Publication PMC10648406, “Pulicaria incisa (Lam.) DC. as a Potential Source of Antioxidant, Antibacterial, and Anti-Enzymatic Bioactive Molecules: Phytochemical Constituents, In Vitro and In Silico Pharmacological Analysis” (Molecules, 2023)
In brackets after ≈: the same amount, converted by molar mass.

What was measured:
A. baumannii = test: MIC, resazurin microtitre method; type: cell-based; settings: Acinetobacter baumannii, 24 h, 35 °C, read-out: Minimal inhibitory concentration
Method: (§1) To ensure sterility, the extracts and DMSO underwent ultrafiltration before their use in the study. The minimum inhibitory concentration (MIC) of both aqueous and methanolic extracts was determined using a modified version of the resazurin method developed by Sarker and Nahar. A resazurin solution was prepared by dissolving 270 mg of resazurin in 40 mL of sterilized deionized water. In 96-well microtiter plates, the first row received 100 μL of samples in DMSO (1:10 v/v), while all other wells received 50 μL of Luria–Bertani broth or normal sterile solution. Serial dilutions of the extracts were performed in descending concentrations. To each well, 10 μL of the resazurin indicator solution was added. […] The plates were sealed with parafilm to prevent dehydration. A column of the plate contained the broad-spectrum antibiotic tetracycline, which was previously suspended in DMSO and served as a positive control. The negative control consisted of Luria–Bertani broth containing resazurin and bacteria without any samples. The plates were incubated at 37 °C (35 °C for A. baumannii) for 24 h. Visual observation was used to assess any color changes. If the solution changed from dark purple to pink or colorless, it was recorded as a positive result. The MIC value was determined as the lowest concentration of extracts that could prevent the color change from dark purple to pink.

E. coli = test: MIC, resazurin microtitre method; type: cell-based; settings: Escherichia coli, 24 h, read-out: Minimal inhibitory concentration
Method: as §1

L. monocytogenes = test: MIC, resazurin microtitre method; type: cell-based; settings: Listeria monocytogenes, 24 h, 37 °C, read-out: Minimal inhibitory concentration
Method: as §1

P. aeruginosa = test: MIC, resazurin microtitre method; type: cell-based; settings: Pseudomonas aeruginosa, 24 h, 37 °C, read-out: Minimal inhibitory concentration
Method: as §1

S. aureus = test: MIC, resazurin microtitre method; type: cell-based; settings: Staphylococcus aureus, 24 h, read-out: Minimal inhibitory concentration
Method: as §1

DPPH assay = settings: 45 min, 515 nm
Method: The antiradical activity of the stable 1,1-diphenyl-2-picrylhydrazyl radical (DPPH) was measured using the protocol of Xiang and coworkers with slight modifications. […] To produce final concentrations ranging from 31.25 to 1000 µg/mL, aliquots of extracts were dissolved in methanol. In a straight-sided cuvette, an aliquot of methanol solution containing different concentrations of either methanolic or aqueous extracts was added to a DPPH solution (60 μM) to a final volume of 1 mL. As a control, an identical quantity of DPPH solution was applied to the cuvette, and methanol alone was used as the blank. After 45 min, the absorbance at 515 nm was measured with a Multiskan GO spectrophotometer (Thermo Fisher Scientific, Vantaa, Finland).
The standard was 6-hydroxy 2,5,7,8-tetramethylchroman-2-carboxylic acid (Trolox, Sigma-Aldrich, Milan, Italy).

| SMILES | MIC (A. baumannii) [mg/L] | MIC (E. coli) [mg/L] | MIC (L. monocytogenes) [mg/L] | MIC (P. aeruginosa) [mg/L] | MIC (S. aureus) [mg/L] | DPPH (IC50) (DPPH assay) [mg/L] |
| --- | --- | --- | --- | --- | --- | --- |
| CN(C)[C@@H]1C(O)=C(C(N)=O)C(=O)[C@@]2(O)C(O)=C3C(=O)c4c(O)cccc4[C@@](C)(O)[C@H]3C[C@@H]12 [Tetracycline] | 25 ± 2 (≈ 56.3 µM) | 25 ± 2 (≈ 56.3 µM) | 32 ± 1 (≈ 72 µM) | 28 ± 1 (≈ 63 µM) | 28 ± 1 (≈ 63 µM) | – |
| Cc1c(C)c2c(c(C)c1O)CCC(C)(C(=O)O)O2 (stereo not drawn) [Trolox, 6-hydroxy 2,5,7,8-tetramethylchroman-2-carboxylic acid] | – | – | – | – | – | 3.65 ± 0.01 |
